US20230174608A1, “Polypeptide Derivative Having Dual Receptor Agonistic Action and Use Thereof” (TIANJIN INSTITUTE OF PHARMACEUTICAL RESEARCH CO., LTD., priority 2020, published 2023)
*1 amine or outer side, *2 acyl side, *3 side chain or, on linkers, in order; H or OH if unused. Where a SMILES comes first, the peptide text is derived from it. Side-chain parts run from the residue outwards. [ ]: non-standard residue; d: D form. The star is where a group is joined. C18 diacid = O=C(O)CCCCCCCCCCCCCCCCC(=O)*; γGlu = O=C(O)[C@H](CCC(=O)[*:2])N[*:1]; Palmitoyl = CCCCCCCCCCCCCCCC(=O)*; AEEA = NCCOCCOCC(=O)O; Aib = CC(C)(N)C(=O)O

Columns and labels:
GLP-1R = molecular target: T1, GLP-1R (Homo sapiens, UniProt P43220); experiment: GLP-1 receptor-mediated cAMP production in vitro; type: cell-based; details: HEK293 cell line stably expressing GLP-1R
T1 construct: expressed in transfected cells
Experimental: (§1) HEK293 cell line stably expressing GLP-1R or GCGR was used for screening GLP-1R and GCGR agonist.
(§2) Preparation of test sample: each compound was prepared into 100 μM stock solution, and then gradually diluted to working concentrations of 1 μM, 100 nM, 10 nM, 1 nM, 10^−1 nM, 10^−2 nM, 10^−3 nM, and H2O.
(§3) 1) Each compound to be tested was mixed with a serum-free medium (containing 0.1% BSA and 0.5 mM IBMX) to obtain a solution at a concentration 2 times the working concentration.
(§4) 2) The cells were digested, suspended in a serum-free medium (containing 0.5 mM IBMX), counted, and placed in a 384-well plate at a density of 1,000 cells/5 μL/well, then 5 μL of the testing compound was added, and the plate was placed in dark for reaction for 30 min.
(§5) 3) After the reaction was completed, a substrate for detecting cAMP was added, and the plate was placed in dark for reaction at the room temperature for 60 min.
(§6) 4) After the reaction was completed, the plate was placed on the Envision2104 multifunctional microplate reader for detection, and the ratio of optical density (OD) values at 665 nm and 615 nm were read out.

GCGR = molecular target: T2, GCGR (Homo sapiens, UniProt P47871); experiment: GC receptor-mediated cAMP production in vitro; type: cell-based; details: HEK293 cell line stably expressing GCGR
T2 construct: expressed in transfected cells
Experimental: as §1, §2, §3, §4, §5, §6

T1 sequence (P43220 24-463, species assumed): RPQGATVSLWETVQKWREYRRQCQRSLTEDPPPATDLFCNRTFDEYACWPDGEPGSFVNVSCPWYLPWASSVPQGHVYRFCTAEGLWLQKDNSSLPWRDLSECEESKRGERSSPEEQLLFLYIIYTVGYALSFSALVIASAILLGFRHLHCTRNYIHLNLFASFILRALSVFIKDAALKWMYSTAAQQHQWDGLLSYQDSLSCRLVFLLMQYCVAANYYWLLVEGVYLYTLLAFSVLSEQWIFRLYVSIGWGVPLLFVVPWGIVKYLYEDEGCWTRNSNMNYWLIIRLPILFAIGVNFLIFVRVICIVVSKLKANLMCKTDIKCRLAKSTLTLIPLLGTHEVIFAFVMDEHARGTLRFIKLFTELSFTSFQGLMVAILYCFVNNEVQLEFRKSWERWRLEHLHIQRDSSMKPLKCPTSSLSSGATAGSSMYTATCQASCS
T2 sequence (P47871 26-477, species assumed): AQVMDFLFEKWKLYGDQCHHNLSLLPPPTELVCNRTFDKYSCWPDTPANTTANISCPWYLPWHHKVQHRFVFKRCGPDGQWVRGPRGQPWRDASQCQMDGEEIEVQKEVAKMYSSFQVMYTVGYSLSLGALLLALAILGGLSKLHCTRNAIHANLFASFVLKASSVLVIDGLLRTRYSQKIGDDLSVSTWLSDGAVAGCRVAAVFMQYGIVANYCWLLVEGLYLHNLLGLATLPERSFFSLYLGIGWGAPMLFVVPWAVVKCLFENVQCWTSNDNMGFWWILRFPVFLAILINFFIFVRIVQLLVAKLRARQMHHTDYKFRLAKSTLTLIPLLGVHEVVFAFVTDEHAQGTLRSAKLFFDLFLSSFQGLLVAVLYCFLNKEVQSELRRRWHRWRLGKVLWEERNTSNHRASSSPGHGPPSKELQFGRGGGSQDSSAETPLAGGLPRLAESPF

SMILES	EC50 (GLP-1R) [nM]	EC50 (GCGR) [nM]
CCCCCCCCCCCCCCCC(=O)N[C@@H](CCC(=O)NCCOCCOCC(=O)NCCOCCOCC(=O)NCCCC[C@H](NC(=O)[C@H](C)NC(=O)[C@H](C)NC(=O)[C@H](CCCNC(=N)N)NC(=O)[C@H](CCC(=O)O)NC(=O)[C@H](CCC(=O)O)NC(=O)[C@H](CC(C)C)NC(=O)[C@H](Cc1ccc(O)cc1)NC(=O)[C@H](CCCCN)NC(=O)[C@H](CO)NC(=O)[C@H](Cc1ccc(O)cc1)NC(=O)[C@H](CC(=O)O)NC(=O)[C@H](CO)NC(=O)[C@@H](NC(=O)[C@H](Cc1ccccc1)NC(=O)[C@@H](NC(=O)CNC(=O)[C@H](CCC(N)=O)NC(=O)C(C)(C)NC(=O)[C@@H](N)Cc1c[nH]cn1)[C@@H](C)O)[C@@H](C)O)C(=O)N[C@@H](CCC(=O)O)C(=O)N[C@@H](Cc1ccccc1)C(=O)N[C@H](C(=O)N[C@@H](C)C(=O)N[C@@H](Cc1c[nH]c2ccccc12)C(=O)N[C@@H](CC(C)C)C(=O)N[C@@H](CCC(=O)O)C(=O)N[C@@H](CO)C(=O)NCC(=O)NCC(N)=O)[C@@H](C)CC)C(=O)O [dgc009] (H-H[Aib]QGTFTSDYSKYLEERAAK([AEEA-AEEA-γGlu-Palmitoyl])EFIAWLESGG-NH2; N-terminus assumed)	0.092	8.22
CCCCCCCCCCCCCCCC(=O)N[C@@H](CCC(=O)NCCOCCOCC(=O)NCCOCCOCC(=O)NCCCC[C@H](NC(=O)[C@H](C)NC(=O)[C@H](C)NC(=O)[C@H](CCCNC(=N)N)NC(=O)[C@H](CCC(=O)O)NC(=O)[C@H](CCC(=O)O)NC(=O)[C@H](CC(C)C)NC(=O)[C@H](Cc1ccc(O)cc1)NC(=O)[C@H](CCCCN)NC(=O)[C@H](CO)NC(=O)[C@H](Cc1ccc(O)cc1)NC(=O)[C@H](CC(=O)O)NC(=O)[C@H](CO)NC(=O)[C@@H](NC(=O)[C@H](Cc1ccccc1)NC(=O)[C@@H](NC(=O)CNC(=O)[C@H](CCC(N)=O)NC(=O)C(C)(C)NC(=O)[C@@H](N)Cc1c[nH]cn1)[C@@H](C)O)[C@@H](C)O)C(=O)N[C@@H](CCC(=O)O)C(=O)N[C@@H](Cc1ccccc1)C(=O)N[C@H](C(=O)N[C@@H](C)C(=O)N[C@@H](Cc1c[nH]c2ccccc12)C(=O)N[C@@H](CC(C)C)C(=O)N[C@@H](CCC(=O)O)C(=O)N[C@@H](C)C(=O)NCC(=O)NCC(N)=O)[C@@H](C)CC)C(=O)O [dgc011] (H-H[Aib]QGTFTSDYSKYLEERAAK([AEEA-AEEA-γGlu-Palmitoyl])EFIAWLEAGG-NH2; N-terminus assumed)	0.955	4.13
CC(C)C[C@H](NC(=O)[C@H](Cc1c[nH]c2ccccc12)NC(=O)[C@H](C)NC(=O)[C@@H](NC(=O)[C@H](Cc1ccccc1)NC(=O)[C@H](CCC(=O)O)NC(=O)[C@H](CCCCNC(=O)COCCOCCNC(=O)COCCOCCNC(=O)CC[C@H](NC(=O)CCCCCCCCCCCCCCCCC(=O)O)C(=O)O)NC(=O)[C@H](C)NC(=O)[C@H](C)NC(=O)[C@H](CCCNC(=N)N)NC(=O)[C@H](CCC(=O)O)NC(=O)[C@H](CCC(=O)O)NC(=O)[C@H](CC(C)C)NC(=O)[C@H](Cc1ccc(O)cc1)NC(=O)[C@H](CCCCN)NC(=O)[C@H](CO)NC(=O)[C@H](Cc1ccc(O)cc1)NC(=O)[C@H](CC(=O)O)NC(=O)[C@H](CO)NC(=O)[C@@H](NC(=O)[C@H](Cc1ccccc1)NC(=O)[C@@H](NC(=O)CNC(=O)[C@H](CCC(N)=O)NC(=O)[C@@H](CO)NC(=O)[C@@H](N)Cc1c[nH]cn1)[C@@H](C)O)[C@@H](C)O)C(C)C)C(=O)N[C@@H](CCC(=O)O)C(=O)NCC(=O)NCC(N)=O [dgc012] (H-H[dS]QGTFTSDYSKYLEERAAK([AEEA-AEEA-γGlu-C18 diacid])EFVAWLEGG-NH2; N-terminus assumed)	0.044	2.17
CCCCCCCCCCCCCCCC(=O)N[C@@H](CCC(=O)NCCCC[C@H](NC(=O)[C@H](C)NC(=O)[C@H](C)NC(=O)[C@H](CCCNC(=N)N)NC(=O)[C@H](CCC(=O)O)NC(=O)[C@H](CC(=O)O)NC(=O)[C@H](CC(C)C)NC(=O)[C@H](Cc1ccc(O)cc1)NC(=O)[C@H](CCCCN)NC(=O)[C@H](CO)NC(=O)[C@H](Cc1ccc(O)cc1)NC(=O)[C@H](CC(=O)O)NC(=O)[C@H](CO)NC(=O)[C@@H](NC(=O)[C@H](Cc1ccccc1)NC(=O)[C@@H](NC(=O)CNC(=O)[C@H](CCC(N)=O)NC(=O)C(C)(C)NC(=O)[C@@H](N)Cc1c[nH]cn1)[C@@H](C)O)[C@@H](C)O)C(=O)N[C@@H](CCC(=O)O)C(=O)N[C@@H](Cc1ccccc1)C(=O)N[C@H](C(=O)N[C@@H](C)C(=O)N[C@@H](Cc1c[nH]c2ccccc12)C(=O)N[C@@H](CC(C)C)C(=O)N[C@@H](CCC(=O)O)C(=O)NCC(=O)NCC(N)=O)[C@@H](C)CC)C(=O)O [dgc014] (HELM PEPTIDE1{H.[Aib].Q.G.T.F.T.S.D.Y.S.K.Y.L.D.E.R.A.A.K.E.F.I.A.W.L.E.G.G.[am]}|PEPTIDE2{[CCCCCCCCCCCCCCCC(=O)[*:2]].[gGlu]}$PEPTIDE1,PEPTIDE2,20:R3-2:R2$$$V2.0; N-terminus assumed)	0.516	0.821
CCCCCCCCCCCCCCCC(=O)N[C@@H](CCC(=O)NCCCC[C@H](NC(=O)[C@H](C)NC(=O)[C@H](C)NC(=O)[C@H](CCCNC(=N)N)NC(=O)[C@H](CCC(=O)O)NC(=O)[C@H](CCC(=O)O)NC(=O)[C@H](CC(C)C)NC(=O)[C@H](Cc1ccc(O)cc1)NC(=O)[C@H](CCCCN)NC(=O)[C@H](CO)NC(=O)[C@H](Cc1ccc(O)cc1)NC(=O)[C@H](CC(=O)O)NC(=O)[C@H](CO)NC(=O)[C@@H](NC(=O)[C@H](Cc1ccccc1)NC(=O)[C@@H](NC(=O)CNC(=O)[C@H](CCC(N)=O)NC(=O)C(C)(C)NC(=O)[C@@H](N)Cc1c[nH]cn1)[C@@H](C)O)[C@@H](C)O)C(=O)N[C@@H](CCC(=O)O)C(=O)N[C@@H](Cc1ccccc1)C(=O)N[C@H](C(=O)N[C@@H](C)C(=O)N[C@@H](Cc1c[nH]c2ccccc12)C(=O)N[C@@H](CC(C)C)C(=O)N[C@@H](CCC(=O)O)C(=O)NCC(=O)NCC(N)=O)[C@@H](C)CC)C(=O)O [dgc015] (HELM PEPTIDE1{H.[Aib].Q.G.T.F.T.S.D.Y.S.K.Y.L.E.E.R.A.A.K.E.F.I.A.W.L.E.G.G.[am]}|PEPTIDE2{[CCCCCCCCCCCCCCCC(=O)[*:2]].[gGlu]}$PEPTIDE1,PEPTIDE2,20:R3-2:R2$$$V2.0; N-terminus assumed)	0.899	1.53
CCCCCCCCCCCCCCCC(=O)N[C@@H](CCC(=O)NCCCC[C@H](NC(=O)[C@H](C)NC(=O)[C@H](C)NC(=O)[C@H](CCCNC(=N)N)NC(=O)[C@H](CCC(=O)O)NC(=O)[C@H](CC(=O)O)NC(=O)[C@H](CC(C)C)NC(=O)[C@H](Cc1ccc(O)cc1)NC(=O)[C@H](CCCCN)NC(=O)[C@H](CO)NC(=O)[C@H](Cc1ccc(O)cc1)NC(=O)[C@H](CC(=O)O)NC(=O)[C@H](CO)NC(=O)[C@@H](NC(=O)[C@H](Cc1ccccc1)NC(=O)[C@@H](NC(=O)CNC(=O)[C@H](CCC(N)=O)NC(=O)C(C)(C)NC(=O)[C@@H](N)Cc1c[nH]cn1)[C@@H](C)O)[C@@H](C)O)C(=O)N[C@@H](CCC(=O)O)C(=O)N[C@@H](Cc1ccccc1)C(=O)N[C@H](C(=O)N[C@@H](C)C(=O)N[C@@H](Cc1c[nH]c2ccccc12)C(=O)N[C@@H](CC(C)C)C(=O)N[C@@H](CCC(=O)O)C(=O)NCC(=O)N[C@@H](CCC(=O)O)C(=O)NCC(N)=O)[C@@H](C)CC)C(=O)O [dgc018] (HELM PEPTIDE1{H.[Aib].Q.G.T.F.T.S.D.Y.S.K.Y.L.D.E.R.A.A.K.E.F.I.A.W.L.E.G.E.G.[am]}|PEPTIDE2{[CCCCCCCCCCCCCCCC(=O)[*:2]].[gGlu]}$PEPTIDE1,PEPTIDE2,20:R3-2:R2$$$V2.0; N-terminus assumed)	0.401	1.3
CCCCCCCCCCCCCCCC(=O)N[C@@H](CCC(=O)NCCCC[C@H](NC(=O)[C@H](C)NC(=O)[C@H](C)NC(=O)[C@H](CCCNC(=N)N)NC(=O)[C@H](CCC(=O)O)NC(=O)[C@H](CCC(=O)O)NC(=O)[C@H](CC(C)C)NC(=O)[C@H](Cc1ccc(O)cc1)NC(=O)[C@H](CCCCN)NC(=O)[C@H](CO)NC(=O)[C@H](Cc1ccc(O)cc1)NC(=O)[C@H](CC(=O)O)NC(=O)[C@H](CO)NC(=O)[C@@H](NC(=O)[C@H](Cc1ccccc1)NC(=O)[C@@H](NC(=O)CNC(=O)[C@H](CCC(N)=O)NC(=O)C(C)(C)NC(=O)[C@@H](N)Cc1c[nH]cn1)[C@@H](C)O)[C@@H](C)O)C(=O)N[C@@H](CCC(=O)O)C(=O)N[C@@H](Cc1ccccc1)C(=O)N[C@H](C(=O)N[C@@H](C)C(=O)N[C@@H](Cc1c[nH]c2ccccc12)C(=O)N[C@@H](CC(C)C)C(=O)N[C@@H](CCC(=O)O)C(=O)NCC(=O)N[C@@H](CCC(=O)O)C(=O)NCC(N)=O)[C@@H](C)CC)C(=O)O [dgc019] (HELM PEPTIDE1{H.[Aib].Q.G.T.F.T.S.D.Y.S.K.Y.L.E.E.R.A.A.K.E.F.I.A.W.L.E.G.E.G.[am]}|PEPTIDE2{[CCCCCCCCCCCCCCCC(=O)[*:2]].[gGlu]}$PEPTIDE1,PEPTIDE2,20:R3-2:R2$$$V2.0; N-terminus assumed)	0.792	1.83
